From patent US20250136617A1 (The Regents of the University of Colorado, A Body Corporate, priority 2022, published 2025)
pEC50: −log10 of the molar value. Read-outs that look alike come from different tables or passages of the source.

Tests used:
[1] = target: CXCR4 (Homo sapiens, UniProt P61073); test: β-arrestin recruitment, 384-well, Tango CXCR4-bla U2OS cells, normalized to SDF-1α; format: cell-based; parameters: host or cells: U2OS; conditions: for Emax: U2OS
Experimental: Tango™ CXCR4-bla U2OS Cells (Invitrogen; K1779) were used for (β-arrestin recruitment assays and maintained as a monolayer culture in McCoy's 5a (Corning; 10-050-CV) supplemented with 10% dialyzed Fetal Bovine Serum (Gibco; 26400-044), 0.1 mM MEM Non-essential amino acids solution, 25 mM HEPES solution (Corning; 25-060-CI), 1 mM Sodium Pyruvate (Gibco; 11360-070), 200 μg/mL Zeocin selection reagent (Gibco; R25001), 50 μg/mL Hygromycin B (Gibco, 10687010), and 100 μg/mL Geneticin (G418 Sulfate) (Gibco, 10131035). U2OS cells were subcultured twice weekly by 0.05% Trypsin-EDTA treatment (Corning; 25-051-CI) and passaged to continue exponential growth phase for cell signaling assays. All cell cultures were maintained in cell culture incubators at 37° C. with 5% CO2. CHO-K1 CXCR4 cells (DiscoverX, Fremont, CA, USA) were used for cAMP inhibition assays and maintained as a monolayer culture in DMEM/F12 (Corning; 10-091-CV) supplemented with 10% Fetal Bovine Serum (Corning; 35-011-CV) and 100IU penicillin, […] streptomycin sulfate (Corning; 30-002-CI) and […] G418 (Gibco; 101310350. Cells were subculture 2 times weekly by o.o5% Trypsin-EDTA treatment (Corning; 25-051-CI) and passaged to continue exponential growth phase for cell signaling assays. All cell cultures were maintained in cell culture incubators at 37° C. with 5% CO2.CEM-CCRF cells (ATCC CCL-119) were used in both the migration and calcium flux assays and were cultured in growth media consisting of RPMI 1640 (Corning; 10-040-CV) supplemented with 10% Fetal Bovine Serum (Corning; 35-011-CV), and 100 IU penicillin, […] streptomycin sulfate (Corning; 30-002-CI). Cells were maintained in suspension and sub-cultured twice weekly to maintain cell densities between 0.8×10^6 cells/mL and 2.5×10^6 cells/mL to maintain exponential growth phase. Cells were harvested for use in migration and calcium flux assays at 2.0×10^6 cells/mL to 2.5×10^6 cells/mL and resuspended in assay media to desired density for respective experiments.
Tango™ CXCR4-bla U2OS Cells were resuspended in assay media consisting of DMEM (Corning; Corning, NY) supplemented with 1% dialyzed Fetal bovine serum, 0.1 mM MEM Non-essential amino acids solution, 25 mM HEPES solution (Corning; Corning, NY), 1 mM Sodium Pyruvate and 100 IU penicillin, […] streptomycin sulfate (Corning; Corning, NY) at a density of 3.0×10^5 cells/ml. Assay media FreeStyle 293 expression Medium (Gibco; 12338018) was used for testing the thiadiazine scaffold CXCR4 agonists. Cells suspension was dispensed at 30 μl per well into assay plate and incubated overnight in a cell culture incubator at 37° C. with 5% CO2. […] Following overnight incubation, LiveBlazer FRET B/G Loading Kit (Invitrogen; K1095) working reagent was prepared according to supplier guidelines and 6 μl of solution was dispensed into each well; 8 μL of solution for testing the thiadiazine scaffold CXCR4 agonists. Assay plate was covered and incubated in a dark place for two hours and Fluorescence Intensity was measured using the BMG LABTECH CLARIOstar Plus (BMG LABTECH Inc., Cary, NC) according to the LiveBlazer FRET B/G Loading Kit excitation and emission measurement guidelines.
Results are expressed as mean±SD for 3 to 5 independent experiments. Statistically significant differences in gene expression between two groups were assessed by Student's T-test, ANOVA with an appropriate post hoc test was be used for multiple comparisons. P<0.05 was considered to be statistically significant. All concentration response curves were analyzed to determine EC50 and Emax using the following equation:
where Y is the normalized response (0-100%), X is the log of concentration of compound tested, and the Hill slope is equal to 1.0% and 100% activity are specific to each assay. […]

[2] = tested on: CEM-CCRF human lymphoblast cells; test: Transwell migration assay in CEM-CCRF lymphoblasts; format: cell-based; conditions: for EC50: read-out: Migration CEM EC50 (μM); for pEC50: read-out: Migration CEM EC50
Experimental: Thus, to confirm CXCR4 functional activity, UCUF-728 was evaluated in a 96 w transwell migration assay in CEM human lymphoblast cells.
CEM-CCRF (ATCC CCL-119) were suspended in RPMI 1640 (Corning; 10-040-CV) at 5.0×10^5 cells/mL and allowed to incubate in cell culture incubator at 37° C. with 5% CO2 for one hour. […] Plates were reassembled and placed in a cell culture incubator at 37° C. with 5% CO2 for three hours. After incubation, Multi-Screen plate was disassembled and 100 μl of solution was collected from compound receiver tray and transferred to 96 well luminescent plate (Thermo Scientific; 265302) and an equal volume of ATPLite Istep luminescence reagent (Perkin Elmer, Waltham, MA; 6016731) was added to each well. Luminescence was measured using the CLARIOstar Plus (BMG LABTECH Inc., Cary, NC).

[3] = normalized to SDF-1, read-out: TANGO β-arrestin Emax (%)
[4] = normalized to SDF-1, read-out: TANGO β-arrestin EC50
[5] = normalized to SDF-1α, read-out: ß-arrestin recruitment EC50

CXCR4, sequence (P61073 whole entry): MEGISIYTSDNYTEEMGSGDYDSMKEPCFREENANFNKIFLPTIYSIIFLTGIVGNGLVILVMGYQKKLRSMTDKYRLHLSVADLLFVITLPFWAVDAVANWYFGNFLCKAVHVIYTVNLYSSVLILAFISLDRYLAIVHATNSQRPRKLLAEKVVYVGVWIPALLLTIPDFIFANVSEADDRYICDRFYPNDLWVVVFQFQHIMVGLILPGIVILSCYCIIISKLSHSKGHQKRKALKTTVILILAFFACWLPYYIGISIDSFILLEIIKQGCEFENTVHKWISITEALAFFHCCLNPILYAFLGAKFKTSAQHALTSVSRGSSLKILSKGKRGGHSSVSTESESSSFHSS

| Compound | Emax [1, 3] [%] | pEC50 [1, 4] | Emax ([2]; Homo sapiens) [%] | Migration CEM Emax (%) [2] | pEC50 [2] | TANGO β-arrestin Emax (%) ([1]; normalized to SDF-1) | pEC50 ([2]; Homo sapiens) | further results |
| --- | --- | --- | --- | --- | --- | --- | --- | --- |
| CCOc1ccccc1-c1nnc2n1N=C(c1ccc(OC)cc1)CS2 [Entry 3] | > 70 | > 5.30 | 35 to 70 | – | – | – | – | EC50 ([2]; Homo sapiens): < 5 µM |
| CCCCOc1ccc(C2=Nn3c(nnc3-c3ccccc3OC)SC2)cc1 [Entry 5] | < 35 | > 5.30 | – | – | – | – | – | EC50 ([2]; Homo sapiens): > 10 µM |
| C=CCOc1ccc(C2=Nn3c(nnc3-c3ccccc3OCC)SC2)cc1 [Entry 6] | > 70 | > 5.30 | – | B (35 < B < 70) | > 5.30 | – | – | – |
| C=CCOc1ccc(C2=Nn3c(nnc3-c3ccccc3OCC)SC2)cc1 [Entry 7] | – | > 5.30 | – | A (A ≥ 70) | – | A (A ≥ 70) | > 5.30 | – |
| COCCOc1ccc(C2=Nn3c(nnc3-c3ccccc3OC)SC2)cc1 [Entry 8] | < 35 | > 5.30 | < 35 | – | – | – | – | EC50 ([2]; Homo sapiens): < 5 µM |
| CCOc1ccccc1-c1nnc2n1N=C(c1ccc(OC(F)(F)F)cc1)CS2 [Entry 10] | > 70 | > 5.30 | > 70 | – | – | – | – | EC50 ([2]; Homo sapiens): 5 to 50 µM |
| CCOc1ccccc1-c1nnc2n1N=C(c1ccc(OC(F)F)cc1)CS2 [Entry 11] | 35 to 70 | > 5.30 | > 70 | – | – | – | – | EC50 ([2]; Homo sapiens): < 5 µM |
| COc1ccccc1-c1nnc2n1N=C(c1ccc(SC)cc1)CS2 [Entry 12] | > 70 | > 5.30 | 35 to 70 | – | – | – | > 5.30 | – |
| COc1ccccc1-c1nnc2n1N=C(c1ccc(N(C)C)cc1)CS2 [Entry 13] | > 70 | > 5.30 | 35 to 70 | – | – | – | > 5.30 | Emax ([1]; read-out: ß-arrestin recruitment Emax (%)): 91%; pEC50 [1, 5]: 7.22 |
| CCOc1ccccc1-c1nnc2n1N=C(c1ccc(N3CCCC3)cc1)CS2 [Entry 14] | > 70 | > 5.30 | – | B (35 < B < 70) | – | – | > 5.30 | – |
| CCOc1ccccc1-c1nnc2n1N=C(c1ccc(N3CCCC3)cc1)CS2 [Entry 15] | – | > 5.30 | – | A (A ≥ 70) | > 5.30 | A (A ≥ 70) | – | – |
| COc1ccccc1-c1nnc2n1N=C(c1ccc(N3CCOCC3)cc1)CS2 [Entry 16] | – | 4.30 to 5.30 | – | A (A ≥ 70) | 4.30 to 5.30 | A (A ≥ 70) | – | – |
| CCOc1ccccc1-c1nnc2n1N=C(c1ccc(N3CCCCC3)cc1)CS2 [Entry 27] | – | < 5.00 | – | – | – | – | < 5.00 | – |
| CCOc1ccccc1-c1nnc2n1N=C(c1ccc3c(c1)CCCN3)CS2 [Entry 29] | – | > 5.30 | – | C (C ≤ 35) | 4.30 to 5.30 | A (A ≥ 70) | – | – |
| CCOc1ccccc1-c1nnc2n1N=C(c1ccc(NC(C)=O)cc1)CS2 [Entry 30] | – | > 5.30 | – | – | < 5.00 | C (C ≤ 35) | – | pEC50 [1, 5]: < 5.00 |
| CCOc1ccccc1-c1nnc2n1N=C(c1ccc(NC(=O)C(C)C)cc1)CS2 [Entry 31] | – | < 5.00 | – | – | < 5.00 | – | – | pEC50 [1, 5]: < 5.00 |
| CCOc1ccccc1-c1nnc2n1N=C(c1ccc(NC(=O)C3CC3)cc1)CS2 [Entry 32] | – | > 5.30 | – | C (C ≤ 35) | > 5.30 | A (A ≥ 70) | – | – |
| CCOc1ccccc1-c1nnc2n1N=C(c1ccc(NC(=O)c3ccccc3)cc1)CS2 [Entry 34] | 35 to 70 | > 5.30 | < 35 | – | – | – | > 5.30 | – |
| CCOc1ccccc1-c1nnc2n1N=C(c1ccc(NC(=O)c3ccccc3C(=O)O)cc1)CS2 [Entry 35] | – | < 5.00 | – | – | – | – | < 5.00 | – |
| CCOc1ccccc1-c1nnc2n1N=C(c1ccc(NC(=O)c3cccc(C(=O)OC)c3)cc1)CS2 [Entry 36] | – | < 5.00 | – | – | – | – | < 5.00 | – |
| CCOc1ccccc1-c1nnc2n1N=C(c1ccc(NC(=O)c3ccc(C(=O)OC)cc3)cc1)CS2 [Entry 37] | – | < 5.00 | – | – | – | – | < 5.00 | – |
| CCOC(=O)CNc1ccc(C2=Nn3c(nnc3-c3ccccc3OCC)SC2)cc1 [Entry 40] | – | > 5.30 | – | C (C ≤ 35) | 4.30 to 5.30 | C (C ≤ 35) | – | pEC50 [1, 5]: < 5.30 |
| CCOc1ccccc1-c1nnc2n1N=C(c1ccc(NCC(=O)O)cc1)CS2 [Entry 40a] | – | – | 23 | – | – | – | – | EC50 ([2]; Homo sapiens): 0.32 µM |
| CCOC(=O)CCNc1ccc(C2=Nn3c(nnc3-c3ccccc3OCC)SC2)cc1 [Entry 41] | 35 to 70 | > 5.30 | < 35 | – | – | – | > 5.30 | – |
| C#CCCCNc1ccc(C2=Nn3c(nnc3-c3ccccc3OCC)SC2)cc1 [Entry 43] | – | > 5.30 | – | C (C ≤ 35) | – | C (C ≤ 35) | – | – |
| CCOc1ccccc1-c1nnc2n1N=C(c1ccc(NC3CCCC3)cc1)CS2 [Entry 45] | – | > 5.30 | – | C (C ≤ 35) | > 5.30 | C (C ≤ 35) | – | pEC50 [1, 5]: 5.85; ß-arrestin recruitment Emax (%) ([1]; normalized to maximal SDF-1α response): 31% |
| CCOc1ccccc1-c1nnc2n1N=C(c1ccc(N3CCCC3)cc1)CS2 [compound 24] | – | – | – | A (A ≥ 70) | – | – | – | – |
